Reference: US7368232B2, “High-throughput assay for virus entry and drug screening” (priority 2003, dated 2008)

Tests used:
[1] = system: Rabies env pseudotyped virus; format: cell-based
[2] = system: Ebola env pseudotyped virus; format: cell-based
[3] = system: Friend MLV containing env-luc1; format: cell-based, Friend murine leukemia virus
[4] = system: VSV env pseudotyped virus; format: cell-based, Vesicular Stomatitis Virus
[5] = system: VSV-G pseudotyped virus containing env-luc1; format: cell-based, vesicular stomatitis virus
[6] = system: MLV env pseudotyped virus; format: cell-based, murine leukemia virus
VSV-G pseudotyped virus = format: cell-based, vesicular stomatitis virus

## Cl.N [ammonium chloride]
[1]
  effect on luciferase activities in the viral entry assay: completely inhibit
[2]
  effect on entry of Ebola virus env pseudotyped particles: significantly inhibited
[3]
  effect on luciferase entry signal: only weakly affected
[4]
  effect on luciferase activities in the viral entry assay: completely inhibit
[5]
  effect on luciferase entry signal: inhibited the signal

## CO/C1=C\C(C)=C\[C@@H](C)[C@@H](O)[C@@H](C)C/C(C)=C/C=C/[C@H](OC)[C@@H]([C@@H](C)[C@@H](O)[C@H](C)[C@@]2(O)C[C@@H](O)[C@H](C)[C@@H](C(C)C)O2)OC1=O [bafilomycin A1]
[1]
  effect on luciferase activities in the viral entry assay: completely inhibit
[2]
  effect on entry of Ebola virus env pseudotyped particles: significantly inhibited
[3]
  effect on luciferase entry signal: only weakly affected
[6]
  effect on luciferase activities in the viral entry assay: little effect
[4]
  effect on luciferase activities in the viral entry assay: completely inhibit
[5]
  effect on luciferase entry signal: inhibited the signal
VSV-G pseudotyped virus
  reduction of infection (β-galactosidase infection assay): 100 fold

## CCN(CC)CCCC(C)Nc1ccnc2cc(Cl)ccc12 (stereo not shown) [chloroquine]
[3]
  effect on luciferase entry signal: only weakly affected
[5]
  decrease of luciferase entry signal: 7 fold
  effect on luciferase entry signal: inhibited the signal
VSV-G pseudotyped virus
  reduction of infection (β-galactosidase infection assay): 20 fold
